Test results: patent US5451506A, “Oncostatin M and novel compositions having anti-neoplastic activity” (Oncogen Limited Partnership, priority 1993, dated 1995)

What was measured:
A375 melanoma cells [1] = assay: Cell growth modulatory assay using 3H-thymidine incorporation into DNA (GIA); format: cell-based, human; set-up: Observed % Inhibition of 3H-TdR Incorporation: concentration or dose not given beside the values
Description: (§1) The assays were performed in 96 flat well plates (Costar 3596). Human melanoma cells (A375) (3×10^3 /100 μl) or cells from another cell line of interest were at an appropriate cell density used. Cells in 100 μl growth medium were placed in each well. Three hours later, 100 μl of test sample in growth medium was added to each well. Plates were incubated at 37° C. for 3 days. Then 25 μl (0.5 μCi) of a solution of ^3 H-thymidine (specific activity 27 μCi/μg) was added to each well for the final 6 hours of incubation. The cells were then transferred to glass filter strips using a multiwell harvester (PHD Cell Harvester, Cambridge Technology, Inc.). The filters were transferred to scintillation vials. Two ml of scintillation fluid (ScientiVerse II, Fisher Scientific Co.) was added and the samples counted in a scintillation counter to quantitate ^3 H-thymidine incorporation.

A549 lung cancer cells = assay: as above; format: cell-based, human
Description: as §1
(§2) The effect of Oncostatin M on various cell lines was assessed using a cell growth modulatory assay performed as described in Example 1B, above. The cell lines tested included A549 lung cancer cells. HTB10 neuroblastoma cells, and A375 melanoma cells.

[2] = tested on: HTB10 neuroblastoma cells; assay: as above; format: cell-based, human
Description: as §1, §2

SK-MEL28 melanoma cells = assay: as above; format: cell-based, human
Description: as §1
(§3) Human tumor cells (A375 melanoma cells, A549 lung cancer cells, HBT10 neuroblastoma cells, and SK-MEL28 melanoma cells) were seeded at 3×10^3 cells/well and normal fibroblasts (WI26 cells and WI38 cells) at 1.5×10^3 cells/well in 96-well plates. Various concentrations of purified Oncostatin M, obtained from the fraction from the C18^3 column with peak antiproliferative activity against A375 cells were used. The assay was performed as described in Example 1B above.

WI26 fibroblasts = assay: as above; format: cell-based, human
Description: as §1, §3

WI38 fibroblasts = assay: as above; format: cell-based, human
Description: as §1, §3

MCF-7 breast tumor cells = assay: Inhibition of 3H-TdR incorporation, Oncostatin M and TNF-α; format: cell-based, human; details: MCF-7 Cells
Description: as §1
Inhibition of ^3 H-TdR incorporation into A375 cells and MCF-7 cells were compared using the assay described in Example 1B, above. The cells were treated with either Oncostatin M alone, TNF-α (Amgen Biologicals, human recombinant TNF-α) alone, or with a combination of Oncostatin M and TNF-α.

A375 melanoma cells [3] = assay: Soft agar colony inhibition assay (TGI); format: cell-based, human; details: 11 days; for # Colonies: untreated 106
Description: A 0.5 ml base layer of 0.5% agar (Agar Noble; Difco Laboratories, Detroit, Mich.) in growth medium was added to 24-well Costar tissue culture plates. One-half ml 0.3% agar in growth medium containing 1 to 2.5×10^3 A375 cells or other cell line of interest at an appropriate cell density, and various concentrations of the factor to be tested were overlaid on the base layer of agar. The plates were incubated at 37° C. in a humidified atmosphere of 5% CO2 in air and refed after 7 days by addition of 0.5 ml of 0.3% agar in growth medium containing the same concentration of the factor to be tested as used previously. Colonies were enumerated unfixed and unstained. The number of colonies with greater than 6 cells were scored.
A375 cells were plated in soft agar, with or without the indicated GIA units of Oncostatin M (see Table 3), as described above in Example 1C. The factor used was from a C18^3 propanol column fraction with peak tumor growth inhibitory activity (GIA). The number of colonies was enumerated at 11 days.

Mouse L929 cells = assay: Effect on mouse L929 cells; format: cell-based; details: mouse L929 cells, sensitive to tumor necrosis factor
Description: The ability of PBL-derived Oncostatin M to affect replication of a variety of cells was also investigated. Mouse L929 cells were insenstive to PBL-derived Oncostatin M using up to 1000 GIA units/ml. Growth of human fibroblasts, WI26, was stimulated by treatment with 1000 GIA units/ml. Normal human T-lymphocyte proliferation at 72 hours post mitogenesis was not affected by up to 500 GIA units/ml.

A375 cells = assay: Effect of acid, base and heat treatments on tumor growth inhibitory activity; format: cell-based, human
Description: as §1
U937 cells (RPMI 1640+5% FCS seeded at 7.5×10^5 cells/ml) were treated with TPA (10 ng/ml) for 3 days. The cells were then washed with medium (serum-free RPMI 1640) and incubated for 24 hr in serum-free (serum-free RPMI 1640) medium before collecting the supernatants. The supernatants were treated with 1N acetic acid or 1N ammonium hydroxide. They were then dialyzed against medium (serum-free RPMI 1640) and tested for their ability to inhibit ^3 H-thymidine incorporation into A375 cells using the assay as described in Example 1B

bone marrow cells = assay: Granulocytic/myelocytic colony formation from bone marrow cells; format: cell-based; details: concentrations up to 100 GIA units/ml
[4] = tested on: γ-interferon-sensitive human tumor cell line; assay: Cytotoxic activity against a γ-interferon-sensitive tumor line; format: cell-based

With “Oncostatin M: Human polypeptide growth regulator produced by activated leukocytes; apparent molecular weight approximately 28 kD by PAGE” the “GIA Units to Cause 30% Inhibition 3H-TDR Incorporation” value (A375 melanoma cells [1]; A375 (melanoma)) was 0.3 GIA Units, the “concentration to cause 30% inhibition 3H-TdR” value (A375 melanoma cells [1]; A375, based upon the specific activity of purified Oncostatin M) was about 0.015 ng/mL and the “Observed % Inhibition of 3H-TdR Incorporation” value (A375 melanoma cells [1]; A375 Cells) was 17%. For the same substance, the “% Inhibition of 3H-thymidine incorporated” value (A375 melanoma cells [1]; Exp. 1, A375, 1 GIA units/well) was 46%, the “% Inhibition of 3H-thymidine incorporated” value (A375 melanoma cells [1]; Exp. 1, A375, 4 GIA units/well) was 62% and the “% Inhibition of 3H-thymidine incorporated” value (A375 melanoma cells [1]; Exp. 1, A375, 16 GIA units/well) was 83%. The “% Inhibition of 3H-thymidine incorporated” value (A375 melanoma cells [1]; Exp. 2, A375, 3 GIA units/well) was 76%, the “% Inhibition of 3H-thymidine incorporated” value (A375 melanoma cells [1]; Exp. 2, A375, 9 GIA units/well) was 87% and the “% Inhibition of 3H-thymidine incorporated” value (A375 melanoma cells [1]; Exp. 3, A375, 8 GIA units/well) was 71%. The “% Inhibition of 3H-thymidine incorporated” value (A375 melanoma cells [1]; Exp. 3, A375, 25 GIA units/well) was 85%, the “% Inhibition of 3H-thymidine incorporated” value (A375 melanoma cells [1]; Exp. 3, A375, 75 GIA units/well) was 89% and the “% Inhibition of 3H-thymidine incorporated” value (A375 melanoma cells [1]; Exp. 4, A375, 1 GIA units/well) was 59%. The “% Inhibition of 3H-thymidine incorporated” value (A375 melanoma cells [1]; Exp. 4, A375, 5 GIA units/well) was 75%, the “% Inhibition of 3H-thymidine incorporated” value (A375 melanoma cells [1]; Exp. 4, A375, 20 GIA units/well) was 87% and the “Growth inhibitory activity contained in the fraction” value (A375 melanoma cells [1]; apparently homogeneous C18^3 fraction, approximately 300 ng protein) was “about 40,000 GIA units”. The “Proliferation of A375 cells” value (A375 melanoma cells [1]; protein electroeluted from the 28 kD band, non-reducing PAGE) was “inhibit proliferation of A375 cells”, the “GIA Units to Cause 30% Inhibition 3H-TDR Incorporation” value (A549 lung cancer cells; A549 (lung cancer)) was 21.0 GIA Units and the “concentration to cause 30% inhibition 3H-TdR” value (A549 lung cancer cells; A549, based upon the specific activity of purified Oncostatin M) was “approximately 1.4 ng/ml”. The “% Inhibition of 3H-thymidine incorporated” value (A549 lung cancer cells; Exp. 3, A549, 8 GIA units/well) was 16%, the “% Inhibition of 3H-thymidine incorporated” value (A549 lung cancer cells; Exp. 3, A549, 25 GIA units/well) was 22% and the “% Inhibition of 3H-thymidine incorporated” value (A549 lung cancer cells; Exp. 3, A549, 75 GIA units/well) was 30%. The “% Inhibition of 3H-thymidine incorporated” value ([2]; Exp. 2, HTB10, 3 GIA units/well) was 11%, the “% Inhibition of 3H-thymidine incorporated” value ([2]; Exp. 2, HTB10, 9 GIA units/well) was 22% and the “% Inhibition of 3H-thymidine incorporated” value ([2]; Exp. 2, HTB10, 27 GIA units/well) was 28%. For the same substance, the “GIA Units to Cause 30% Inhibition 3H-TDR Incorporation” value ([2]; HTB10 (neuroblastoma)) was 81.0 GIA Units, the “concentration to cause 30% inhibition 3H-TdR” value ([2]; HTB10, based upon the specific activity of purified Oncostatin M) was about 4.0 ng/mL and the “% Inhibition of 3H-thymidine incorporated” value (SK-MEL28 melanoma cells; Exp. 4, SK-MEL28, 1 GIA units/well) was 11%. For the same substance, the “% Inhibition of 3H-thymidine incorporated” value (SK-MEL28 melanoma cells; Exp. 4, SK-MEL28, 5 GIA units/well) was 25%, the “% Inhibition of 3H-thymidine incorporated” value (SK-MEL28 melanoma cells; Exp. 4, SK-MEL28, 20 GIA units/well) was 44% and the “% Stimulation of 3H-thymidine incorporated” value (“% Stimulation” for short) (WI26 fibroblasts; Exp. 2, WI26, 3 GIA units/well) was 52%. For the same substance, the “% Stimulation” value (WI26 fibroblasts; Exp. 2, WI26, 9 GIA units/well) was 36%, the “% Stimulation” value (WI26 fibroblasts; Exp. 2, WI26, 27 GIA units/well) was 46% and the Cytotoxic activity (WI26 fibroblasts; WI26 human fibroblasts) was “lacks cytotoxic activity”. The “% Stimulation” value (WI38 fibroblasts; Exp. 1, WI38, 1 GIA units/well) was 46%, the “% Stimulation” value (WI38 fibroblasts; Exp. 1, WI38, 4 GIA units/well) was 30% and the “% Stimulation” value (WI38 fibroblasts; Exp. 1, WI38, 16 GIA units/well) was 25%. For the same substance, the Cytotoxic activity (WI38 fibroblasts; WI38 human fibroblasts) was “lacks cytotoxic activity”, the “Observed % Inhibition of 3H-TdR Incorporation” value (MCF-7 breast tumor cells) was 18% and the “% Inhibition of Colony Formation” value (A375 melanoma cells [3]; 27 GIA Units/Well) was 89%. The “# Colonies” value (A375 melanoma cells [3]; 27 GIA Units/Well) was 11, the “% Inhibition of Colony Formation” value (A375 melanoma cells [3]; 45 GIA Units/Well) was 69% and the “# Colonies” value (A375 melanoma cells [3]; 45 GIA Units/Well) was 32. The “% Inhibition of Colony Formation” value (A375 melanoma cells [3]; 83 GIA Units/Well) was 94%, the “# Colonies” value (A375 melanoma cells [3]; 83 GIA Units/Well) was 6 and the “% Inhibition of Colony Formation” value (A375 melanoma cells [3]; 250 GIA Units/Well) was 96%. For the same substance, the “# Colonies” value (A375 melanoma cells [3]; 250 GIA Units/Well) was 4, the Cytotoxic activity (Mouse L929 cells) was “lacks cytotoxic activity” and the “Resistance to inactivation by acid and base” value (A375 cells; 1N acetic acid and 1N ammonium hydroxide, dialyzed supernatant) was “substantially resistant to inactivation”. The “Heat stability of activity” value (A375 cells; 56° C. for 1 hr) was “retain its activity”, the “Heat stability of activity” value (A375 cells; 95° C. for 30 min) was “lose substantially all its activity” and the Granulocytic/myelocytic colony formation (bone marrow cells) was “does not inhibit granulocytic/myelocytic colony formation”. For the same substance, the Cytotoxic activity [4] was “lacks cytotoxic activity”.
